We go through one molecule from patent US20240247236A1, “METHOD FOR PRODUCING PLURIPOTENT STEM CELLS” (KANEKA CORPORATION, priority 2021, published 2024).

The test system of the assay is human iPS cell line 201B7. Kind of assay: Quantitative real-time PCR analysis of germ layer marker genes in suspension culture of human iPS cell line 201B7. It counts as cell-based. To be noted: WNT inhibitor = IWR-1-endo 20 μM, PKCβ inhibitor = GF109203X 3 μM. Background: In qPCR the cycle at which signal appears reflects the starting amount.
Where [1] appears, read: day 10 of suspension culture, compared with adherent culture (Reference Example 1).

Experimental: Human iPS cell line 201B7 after adherent culture in the same manner as in Reference Example 1 was treated with Accutase for 5 minutes to be detached from the culture surface, and the cells were dispersed into a single state by pipetting. The cells were suspended in StemFit (registered trademark) AK02N medium containing Y-27632 at a final concentration of 10 μM, and some of the cells were stained with trypan blue, followed by measurement of the viable cell count. A cell suspension was prepared using StemFit (registered trademark) AK02N medium containing Y-27632 at a final concentration of 10 μM such that the cell suspension included 2×10^5 cells per 1 mL. The cell suspension in an amount of 1 mL was seeded per well in a 12-well plate for suspension culture (Sumitomo Bakelite Co., Ltd.). The plate seeded with cells was rotated on a rotary shaker at a speed of 98 rpm along a horizontal plane in a circle with a rotation width (diameter) of 25 mm, during which the suspension culture was performed at 37° C. in a 5% CO2 environment.
The day when the cells were seeded was defined as day 0 of culture, passage was performed on day 5 of culture, and suspension culture was performed until day 10 of culture. Medium exchange was carried out every day. As for the method of medium exchange, the entire amount of the medium containing cell masses was collected into a centrifuge tube, and the tube was allowed to stand for about 5 minutes, thereby settling the cell masses. Then, the culture supernatant was removed, and the residue was gently resuspended in StemFit (registered trademark) AK02N medium, and returned to the original well.
Upon medium exchange, Y-27632 was added to the medium at a final concentration of 5 μM on days 1 and 6 of culture, and Y-27632 was added to the medium at a final concentration of 2 μM on days 2 and 7 of culture. On day 5 of culture, the cell masses and culture supernatant were collected from the wells into a centrifuge tube and allowed to stand for about 5 minutes, thereby settling the cell masses. Then, the culture supernatant was removed.
After adding 1 mL of Accutase to the cell masses, the cell masses were treated at 37° C. for 10 minutes and then dispersed into a single-cell state by pipetting. The cells were suspended in StemFit (registered trademark) AK02N medium containing Y-27632 at a final concentration of 10 μM, and some of the cells were stained with trypan blue, followed by measurement of the viable cell count. A cell suspension was prepared using StemFit (registered trademark) AK02N medium containing Y-27632 at a final concentration of 10 μM such that the cell suspension included 2×10^5 cells per 1 mL. Then, cell seeding was performed in the same manner as in the case of day 0 to continue the suspension culture.
Suspension culture was performed in the same manner as in Reference Example 2, except that IWR-1-endo was added as a WNT inhibitor at a final concentration of 20 μM to the seeding medium and the medium exchanged for new medium for suspension culture.

As for `O=C(Nc1cccc2cccnc12)c1ccc(N2C(=O)[C@@H]3[C@H](C2=O)[C@@H]2C=C[C@H]3C2)cc1` [IWR-1-endo, 4-(1,3,3a,4,7,7a-hexahydro-1,3-dioxo-4,7-methano-2H-isoindole-2-yl)-N-8-quinolinyl-benzamide], under setting [1], the “expression level of PAX6 (ectodermal marker gene)” value is on record as “greater than that in Reference Example 1”, the “expression level of SOX17 (endodermal marker gene)” value is reported as “suppressed to the expression levels acceptable for the pluripotent stem cells as with Reference Example 1” and the “expression level of TBXT (mesodermal marker gene)” value is “suppressed to the expression levels acceptable for the pluripotent stem cells as with Reference Example 1”. Where the note is “suspension culture”, the “spontaneous differentiation into ectoderm” value is recorded as “weak suppressive effect”; the “spontaneous differentiation into mesoderm and endoderm” value is reported as “can effectively suppress”.
